Values after ≈ are worked out from the molar mass of the structure shown. Where two headings read alike, the source gives them in different places.
Key:
Type in all cases: cell-based
[1] = system: Phytophthora capsici (Pc); assay: In vitro pathogen growth inhibition assay, Pc; details: 48 h
Summary of the method: (§1)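 Value reported is the compound concentration reaching ≥90% growth inhibition, from OD readings at 24 and 48 h after blank subtraction, confirmed visually. Inoculum was spores diluted in 17% V8 medium, except Rs, using 1.5 mm mycelial plugs in ¼ PDB; actual compound concentration corrected via OD600.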

Septoria tritici (St) = assay: In vitro pathogen growth inhibition assay, St; details: Zymoseptoria tritici, 48 h
Summary of the method: (§2)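 Spores in 17% V8 liquid medium, or 1.5 mm Rs mycelial plugs in ¼ PDB, incubated with compound; final concentration checked by OD600 for precipitation. OD readings at 24 and 48 h, blank-subtracted, plus visual ratings; value is concentration giving ≥90% growth inhibition.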

[2] = system: Collectotrichum graminicola (Cg); assay: In vitro pathogen growth inhibition assay, Cg; details: 48 h
Summary of the method: as §2

Rhizoctonia solani (Rs) = assay: In vitro pathogen growth inhibition assay, Rs (mycelial plugs); details: Rhizoctonia solani, 48 h
Summary of the method: as §1

Diplodia maydis (Dm) = assay: In vitro pathogen growth inhibition assay, Dm; details: Stenocarpella maydis, 48 h
Summary of the method: as §1

[3] = system: Fusarium virguliforme (Fv); assay: In vitro pathogen growth inhibition assay, Fv
Summary of the method: as §1

Botrtyis cinerea (Bc) = assay: In vitro pathogen growth inhibition assay, Bc; details: 48 h
Summary of the method: as §2

[4] = system: Fusarium moniliforme (Fm); assay: In vitro pathogen growth inhibition assay, Fm; details: Fusarium verticillioides
Summary of the method: as §2

[5] = ≥90% growth inhibition, 48 hours, vs 2% DMSO control, read-out: Compound Concentration (ppm) sufficient for ≥90% inhibition of Pc
[6] = ≥90% growth inhibition, 48 hours, vs 2% DMSO control, read-out: Compound Concentration (ppm) sufficient for ≥90% inhibition of St
[7] = ≥90% growth inhibition, 48 hours, vs 2% DMSO control, read-out: Compound Concentration (ppm) sufficient for ≥90% inhibition of Cg
[8] = ≥90% growth inhibition, mycelial plugs, 48 hours, vs 2% DMSO control, read-out: Compound Concentration (ppm) sufficient for ≥90% inhibition of Rs
[9] = ≥90% growth inhibition, 48 hours, vs 2% DMSO control, read-out: Compound Concentration (ppm) sufficient for ≥90% inhibition of Dm
[10] = ≥90% growth inhibition, 48 hours, vs 2% DMSO control, read-out: Compound Concentration (ppm) sufficient for ≥90% inhibition of Fv
[11] = ≥90% growth inhibition, 48 hours, vs 2% DMSO control, read-out: Compound Concentration (ppm) sufficient for ≥90% inhibition of Bc
[12] = ≥90% growth inhibition, 48 hours, vs 2% DMSO control, read-out: Compound Concentration (ppm) sufficient for ≥90% inhibition of Fm
[13] = concentration sufficient to ≥90% inhibition of growth, 48 hours vs 2% DMSO control, read-out: Compound Concentration (ppm) for ≥90% inhibition, Pc
[14] = concentration sufficient to ≥90% inhibition of growth, 48 hours vs 2% DMSO control, read-out: Compound Concentration (ppm) for ≥90% inhibition, St
[15] = concentration sufficient to ≥90% inhibition of growth, 48 hours vs 2% DMSO control, read-out: Compound Concentration (ppm) for ≥90% inhibition, Cg
[16] = concentration sufficient to ≥90% inhibition of growth, 48 hours vs 2% DMSO control, read-out: Compound Concentration (ppm) for ≥90% inhibition, Rs
[17] = concentration sufficient to ≥90% inhibition of growth, 48 hours vs 2% DMSO control, read-out: Compound Concentration (ppm) for ≥90% inhibition, Dm
[18] = concentration sufficient to ≥90% inhibition of growth, 48 hours vs 2% DMSO control, read-out: Compound Concentration (ppm) for ≥90% inhibition, Fv
[19] = concentration sufficient to ≥90% inhibition of growth, 48 hours vs 2% DMSO control, read-out: Compound Concentration (ppm) for ≥90% inhibition, Bc
[20] = concentration sufficient to ≥90% inhibition of growth, 48 hours vs 2% DMSO control, read-out: Compound Concentration (ppm) for ≥90% inhibition, Fm

Row | SMILES | IC90 [1, 5] | IC90 (Septoria tritici (St); [6]) | IC90 [2, 7] | IC90 (Rhizoctonia solani (Rs); [8]) | IC90 (Diplodia maydis (Dm); [9]) | IC90 [3, 10] | IC90 (Botrtyis cinerea (Bc); [11]) | IC90 [4, 12] | IC90 [1, 13] | IC90 (Septoria tritici (St); [14]) | IC90 [2, 15] | IC90 (Rhizoctonia solani (Rs); [16]) | IC90 (Diplodia maydis (Dm); [17]) | IC90 [3, 18] | IC90 (Botrtyis cinerea (Bc); [19]) | IC90 [4, 20]
1 | COc1ccc(F)cc1[C@H](Cn1c(=O)n([C@H](C)C(=O)N2CCCC2)c(=O)c2c(C)c(-n3cccn3)sc21)OCCC#N [Compound I-314] | > 50 µg/mL | > 50 µg/mL | 50 µg/mL (≈ 84.1 µM) | > 50 µg/mL | > 50 µg/mL | 10 µg/mL (≈ 16.8 µM) | > 50 µg/mL | 2 µg/mL (≈ 3.36 µM) | – | – | – | – | – | – | – | –
2 | COc1ccc(F)cc1[C@@](O)(CO)Cn1c(=O)n(C(C)(C)C(=O)NC(C)C)c(=O)c2c(C)c(-n3nccn3)sc21 [Compound I-315] | 2 µg/mL (≈ 3.48 µM) | > 50 µg/mL | 0.08 µg/mL (≈ 0.139 µM) | 0.08 µg/mL (≈ 0.139 µM) | 0.4 µg/mL (≈ 0.696 µM) | 0.4 µg/mL (≈ 0.696 µM) | 0.4 µg/mL (≈ 0.696 µM) | 0.08 µg/mL (≈ 0.139 µM) | – | – | – | – | – | – | – | –
3 | COc1ccc(F)cc1[C@H](Cn1c(=O)n(C(C)(C)C(=O)NC(C)C)c(=O)c2c(C)c(-n3cncn3)sc21)OCCC#N [Compound I-317] | – | – | – | – | – | – | – | – | > 50 µg/mL | > 50 µg/mL | 50 µg/mL (≈ 83.7 µM) | > 50 µg/mL | > 50 µg/mL | ≥ 10 µg/mL | 50 µg/mL (≈ 83.7 µM) | 10 µg/mL (≈ 16.7 µM)
4 | CCNC(=O)C(C)(C)n1c(=O)c2c(C)c(-n3nccn3)sc2n(C[C@@H](OC(C)=O)c2cc(F)ccc2OC)c1=O [Compound I-318] | – | – | – | – | – | – | – | – | > 50 µg/mL | > 50 µg/mL | > 50 µg/mL | > 50 µg/mL | > 50 µg/mL | > 50 µg/mL | 50 µg/mL (≈ 87.3 µM) | 10 µg/mL (≈ 17.5 µM)
5 | COc1ccc(F)cc1[C@H](Cn1c(=O)n(C(C)(C)C(=O)NC(C)C)c(=O)c2c(C)c(-n3nccn3)sc21)OCCCO [Compound I-319] | > 50 µg/mL | > 50 µg/mL | > 50 µg/mL | > 50 µg/mL | > 50 µg/mL | 10 µg/mL (≈ 16.6 µM) | 50 µg/mL (≈ 83 µM) | 2 µg/mL (≈ 3.32 µM) | – | – | – | – | – | – | – | –
6 | COc1ccc(F)cc1[C@@H](Cn1c(=O)n(C(C)(C)C(=O)NC(C)C)c(=O)c2c(C)c(-n3nccn3)sc21)OCCCO [Compound I-320] | – | – | – | – | – | – | – | – | > 50 µg/mL | > 50 µg/mL | > 50 µg/mL | > 50 µg/mL | > 50 µg/mL | 50 µg/mL (≈ 83 µM) | 50 µg/mL (≈ 83 µM) | 50 µg/mL (≈ 83 µM)
7 | CCOC(=O)c1sc2c(c1C)c(=O)n(C(C)(C)C(=O)NC(C)C)c(=O)n2C[C@H](OCC(C)(C)C#N)c1cc(F)ccc1OC [Compound I-321] | > 50 µg/mL | > 50 µg/mL | 0.4 µg/mL (≈ 0.634 µM) | 2 µg/mL (≈ 3.17 µM) | ≥ 0.4 µg/mL | 0.4 µg/mL (≈ 0.634 µM) | 0.4 µg/mL (≈ 0.634 µM) | 0.08 µg/mL (≈ 0.127 µM) | – | – | – | – | – | – | – | –
8 | COc1ccc(F)cc1[C@@H](Cn1c(=O)n(C(C)(C)C(=O)NC(C)C)c(=O)c2c(C)c(-n3nccn3)sc21)OC(C)=O [Compound I-322] | – | – | – | – | – | – | – | – | > 50 µg/mL | > 50 µg/mL | > 50 µg/mL | > 50 µg/mL | > 50 µg/mL | ≥ 10 µg/mL | 10 µg/mL (≈ 17 µM) | 10 µg/mL (≈ 17 µM)
9 | CCNC(=O)C(C)(C)n1c(=O)c2c(C)c(-n3nccn3)sc2n(C[C@H](OC(C)=O)c2cc(F)ccc2OC)c1=O [Compound I-324] | > 50 µg/mL | > 50 µg/mL | 10 µg/mL (≈ 17.5 µM) | 2 µg/mL (≈ 3.49 µM) | 10 µg/mL (≈ 17.5 µM) | 2 µg/mL (≈ 3.49 µM) | 2 µg/mL (≈ 3.49 µM) | 0.4 µg/mL (≈ 0.699 µM) | – | – | – | – | – | – | – | –
10 | COc1ccc(F)cc1[C@H](Cn1c(=O)n(C(C)(C)C(=O)NC(C)C)c(=O)c2c(C)c(CO)sc21)OCCC#N [Compound I-325] | > 50 µg/mL | > 50 µg/mL | > 50 µg/mL | > 50 µg/mL | > 50 µg/mL | 50 µg/mL (≈ 89.2 µM) | 50 µg/mL (≈ 89.2 µM) | 2 µg/mL (≈ 3.57 µM) | – | – | – | – | – | – | – | –
11 | CCc1ccc(F)cc1CCn1c(=O)n(C(C)(C)C(=O)NC(C)C)c(=O)c2c(C)c(-n3nccn3)sc21 [Compound I-326] | > 50 µg/mL | > 50 µg/mL | 2 µg/mL (≈ 3.8 µM) | 10 µg/mL (≈ 19 µM) | 2 µg/mL (≈ 3.8 µM) | 0.08 µg/mL (≈ 0.152 µM) | 2 µg/mL (≈ 3.8 µM) | 0.08 µg/mL (≈ 0.152 µM) | – | – | – | – | – | – | – | –
12 | Cc1c(-n2nccn2)sc2c1c(=O)n(C(C)(C)C(=O)NC(C)C)c(=O)n2CCc1cc(F)ccc1CCCC#N [Compound I-328] | > 50 µg/mL | > 50 µg/mL | 10 µg/mL (≈ 17.7 µM) | 10 µg/mL (≈ 17.7 µM) | 2 µg/mL (≈ 3.54 µM) | 0.4 µg/mL (≈ 0.707 µM) | 2 µg/mL (≈ 3.54 µM) | 0.4 µg/mL (≈ 0.707 µM) | – | – | – | – | – | – | – | –
13 | COc1ccc(F)cc1CCn1c(=O)n(C(C)(C)C(=O)NC(C)C)c(=O)c2c(C)c(-n3cccn3)sc21 [Compound I-329] | > 50 µg/mL | > 50 µg/mL | 50 µg/mL (≈ 94.8 µM) | 50 µg/mL (≈ 94.8 µM) | 50 µg/mL (≈ 94.8 µM) | 2 µg/mL (≈ 3.79 µM) | 10 µg/mL (≈ 19 µM) | 2 µg/mL (≈ 3.79 µM) | – | – | – | – | – | – | – | –
14 | Cc1c(-n2nccn2)sc2c1c(=O)n(C(C)(C)C(=O)NC(C)C)c(=O)n2CCc1cc(F)ccc1OC1CCOCC1 [Compound I-331] | > 50 µg/mL | > 50 µg/mL | 10 µg/mL (≈ 16.7 µM) | 10 µg/mL (≈ 16.7 µM) | > 50 µg/mL | 0.08 µg/mL (≈ 0.134 µM) | 2 µg/mL (≈ 3.34 µM) | 0.08 µg/mL (≈ 0.134 µM) | – | – | – | – | – | – | – | –
15 | Cc1c(-n2nccn2)sc2c1c(=O)n(C(C)(C)C(=O)NC(C)C)c(=O)n2CCc1cc(F)ccc1OCc1ccccc1 [Compound I-332] | > 50 µg/mL | > 50 µg/mL | > 50 µg/mL | > 50 µg/mL | > 50 µg/mL | 2 µg/mL (≈ 3.31 µM) | > 50 µg/mL | 2 µg/mL (≈ 3.31 µM) | – | – | – | – | – | – | – | –
16 | COc1ccccc1[C@H](Cn1c(=O)n([C@H](C)C(=O)NC(C)C)c(=O)c2c(C)c(-n3cccn3)sc21)OCCC#N [Compound I-333] | 50 µg/mL (≈ 88.5 µM) | > 50 µg/mL | 2 µg/mL (≈ 3.54 µM) | 2 µg/mL (≈ 3.54 µM) | 10 µg/mL (≈ 17.7 µM) | 10 µg/mL (≈ 17.7 µM) | 2 µg/mL (≈ 3.54 µM) | 0.4 µg/mL (≈ 0.708 µM) | – | – | – | – | – | – | – | –
17 | CC(=O)Oc1ccc(F)cc1[C@@H](Cn1c(=O)n(C(C)(C)C(=O)NC(C)C)c(=O)c2c(C)c(-n3nccn3)sc21)OCCC#N [Compound I-334] | – | – | – | – | – | – | – | – | > 50 µg/mL | > 50 µg/mL | > 50 µg/mL | > 50 µg/mL | > 50 µg/mL | > 50 µg/mL | > 50 µg/mL | 50 µg/mL (≈ 79.9 µM)

— US10941157B2, “Pesticidal compositions and uses thereof” (Gilead Apollo, LLC, priority 2015, dated 2021)
